{"source": "patent EP0217621A2", "about": "“Macromolecular tumor cell growth-inhibiting antibiotic” (SMITHKLINE BECKMAN CORPORATION, priority 1985, dated 1987)", "key": {"ADJ-PC6 Plasmacytoma": {"system": "ADJ-PC6 Plasmacytoma", "experiment": "in vivo ADJ-PC6 Plasmacytoma tumor model", "parameters": "species or system BALB/c female mice", "experimental": "Likewise, AAC-345, in the form of the crude broth of ATCC 53270 and the purified active component of ATCC 53270, was tested in an additional in vivo tumor model known as ADJ-PC6 Plasmacytoma according to the following assay [see Cleare et al., J. Biochimie, 60, 830-850 (1978)]: • Tumor cells are carried by serial sc passage in BALB/c female mice and then collected aseptically on ca. Day 21 and minced in Hank's balanced salt solution. The cells are then dispersed by homogenizer, and cell concentration is adjusted to 4×10^6 viable (trypan blue-excluding) cells per ml by hemocytometer counts. A total of 0.5 ml (2x10^6 cells) is implanted sc on the right flank of BALB/c female mice in groups of 8. Treatment is given ip on Days 1-10, and tumors are measured in perpendicular diameters with a vernier caliper approximately three (3) weeks after tumor implantation (Days 18-21). Generally, > 75% inhibition of tumor growth reflects significant antitumor effect."}, "P388 leukemia": {"system": "P388 leukemia", "experiment": "in vivo ip P388 leukemia mouse model", "parameters": "species or system B6D2F1 mice", "conditions": "positive control, 1 mg/kg/day", "source_text": "P388 lymphocytic leukemia is currently the most widely used animal tumor model for screening for antitumor agents and for detailed evaluation of active compounds. This tumor system is widely accepted as an antitumor agent screening tool because it is sensitive to virtually all of the clinically active antineoplastic agents; quantitative and reproducible: amenable for large-scale screening; and predictive for activity in other animal tumor models. […] Rpts. (Part III), 3, 1-103 (1972)]: • 10^6 P388 leukemia cells are inoculated ip in B6D2F1 mice. Twenty-four hours later, if the tumor inoculum proves to be free of bacterial contamination (as determined by 24 hours incubation in thioglycollate broth), animals are randomized into groups of 6 and housed in shoebox cages. The purified active component of ATCC 53270 was dissolved in 0.9 percent NaCl solution (normal saline) at an appropriate concentration so that the desired dose was delivered in a volume of 0.5 ml. The crude broth of ATCC 53270 was administered undiluted or diluted with normal saline. Such saline solutions were stored in amber bottles at 4°C. The saline solution of the purified active component of ATCC 53270, saline solution of the crude broth of ATCC 53270 or undiluted crude broth of ATCC 53270 are administered ip on Days 1 through 5 (i.e. treatment is initiated 24 hrs after tumor inoculation). […] Animals are weighed as a group on Days 1, 5 and 9 and average weight change (δ wt.) is used as a reflection of toxicity. Each experiment also includes an inoculum titration -- groups of 8 mice inoculated ip with 10^5 to 10^0 P388 leukemia cells. The titration is used to calculate cell kill achieved by treatment with drugs. Animals are monitored daily for mortality and experiments are terminated after 45 days. The endpoint is median survival time (MST) and increase in lifespan (ILS) which is the percentage of increase in MST relative to untreated controls. Untreated controls inoculated ip with 10^6 P388 leukemia cells generally survive for a median of 9 to 11 days. A drug is considered active if it produces > 25 percent ILS."}}}
{"smiles": "N.N.[Cl][Pt][Cl]", "note": "[Cisplatin]", "values": [{"measurement": "TGI (percent of tumor growth inhibition)", "setting": "ADJ-PC6 Plasmacytoma; Experiment I, 3 mg/kg/day ip Days 1-10, Day 21", "result": 100, "unit": "%"}, {"measurement": "Mean Tumor Volume", "setting": "ADJ-PC6 Plasmacytoma; Experiment I, 3 mg/kg/day ip Days 1-10, measured Day 21", "result": "0 ± 0", "unit": "mm^3"}, {"measurement": "tumor growth inhibition", "setting": "ADJ-PC6 Plasmacytoma; positive control, general statement in the method", "result": "complete tumor growth inhibition"}, {"measurement": "ILS (increase in lifespan)", "setting": "P388 leukemia; Experiment I", "result": 117, "unit": "%"}, {"measurement": "Median Survival Time", "setting": "P388 leukemia; Experiment I", "result": 19.5, "unit": "days"}, {"measurement": "Weight Change Day 5", "setting": "P388 leukemia; Experiment I", "result": -0.2, "unit": "gm"}, {"measurement": "Weight Change Day 9", "setting": "P388 leukemia; Experiment I", "result": "+1.4 gm"}, {"measurement": "ILS (increase in lifespan)", "setting": "P388 leukemia; Experiment II", "result": 89, "unit": "%"}, {"measurement": "Median Survival Time", "setting": "P388 leukemia; Experiment II", "result": 17, "unit": "days"}, {"measurement": "Weight Change Day 5", "setting": "P388 leukemia; Experiment II", "result": -0.6, "unit": "gm"}, {"measurement": "Weight Change Day 9", "setting": "P388 leukemia; Experiment II", "result": "+1.2 gm"}]}
